# Laboratory results: patent US10633419B2, “Immunomodulators” (BRISTOL-MYERS SQUIBB COMPANY, priority 2014, dated 2020)
# Starred links: 1 amine or outer side, 2 acyl side, 3 side chain; linkers in the order of their positions; H or OH if unused. Positions of bridges follow the written chain, without caps; N, C: chain ends. Non-standard residues stand in square brackets, D forms with d. Residues, ends and D or L forms follow the SMILES beside them. Groups on a side chain read outwards from the residue. *: point of attachment. X12 = O=C(O)CCCCCCCCCCCCCCCCCCC(=O)N[C@@H](CCC(=O)NCCCOCCOCCOCCCN*)C(=O)O; X13 = O=C(O)CCCCCCCCCCCCCCC(=O)N[C@@H](CCC(=O)NCCCOCCOCCOCCCN*)C(=O)O; Trp(1-CH2COOH) = N[C@@H](Cc1cn(CC(=O)O)c2ccccc12)C(=O)O; X3 = NC(=O)[C@H](CC(=O)O)NC(=O)CCC(=O)NCCCOCCOCCOCCCN*; X10 = O=C(O)CCCCCCCCCCCCCCC(=O)N[C@@H](CN*)C(=O)O; C18 diacid = O=C(O)CCCCCCCCCCCCCCCCC(=O)*; γGlu = O=C(O)[C@H](CCC(=O)[*:2])N[*:1]; d(cisHyp) = O=C(O)[C@H]1C[C@@H](O)CN1; βAsp = O=C(O)[C@H](CC(=O)[*:2])N[*:1]; PEG6 = NCCOCCOCCOCCOCCOCCOCCC(=O)O; Hyp = O=C(O)[C@@H]1C[C@@H](O)CN1; NHhexadecyl = CCCCCCCCCCCCCCCCN*; NMeNle = CCCC[C@H](NC)C(=O)O; Pip = O=C(O)[C@@H]1CCCCN1; NMeA = CN[C@@H](C)C(=O)O; Aun = NCCCCCCCCCCC(=O)O; Dab = NCC[C@H](N)C(=O)O; Dap = NC[C@H](N)C(=O)O
# Target: T1, PD-L1 (Homo sapiens, UniProt Q9NZQ7)
# T1 construct: hPDL1(19-239)-TVMV-His; made in house; host or cells: HEK293T
# T1 sequence (Q9NZQ7 with tags, fused parts or gaps): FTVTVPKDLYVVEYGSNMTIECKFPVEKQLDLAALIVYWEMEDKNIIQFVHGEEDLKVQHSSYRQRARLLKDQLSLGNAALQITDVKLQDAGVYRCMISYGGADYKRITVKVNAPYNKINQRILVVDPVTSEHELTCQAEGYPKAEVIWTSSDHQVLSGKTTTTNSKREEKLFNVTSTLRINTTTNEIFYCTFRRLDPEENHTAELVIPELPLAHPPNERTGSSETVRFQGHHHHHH
# Assay: PD-1/PD-L1 Homogenous Time-Resolved Fluorescence (HTRF) binding assay (PD-1-Ig/PD-L1-His)
# Details: not given
# Method in brief: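 Inhibitors pre-incubated 15 min with PD-L1-His (10 nM final), then PD-1-Ig (20 nM final) added for 15 min in dPBS/0.1% BSA/0.05% Tween-20. Eu-cryptate anti-Ig (1 nM) and APC anti-His (20 nM) added, 30 min equilibration, 665/620 nm HTRF ratio read.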
row,Structure (SMILES),IC50 [nM]
1,CCCC[C@H]1C(=O)N(C)[C@@H](CCCC)C(=O)N[C@@H](CCC(=O)O)C(=O)N[C@H](C(=O)NCC(=O)N[C@@H](Cc2cn(CCOCCOCCOCCOCCOCCOCCOCCOC(=O)CCC(=O)Oc3c(C)c(C)c4c(c3C)CC[C@@](C)(CCC[C@H](C)CCC[C@H](C)CCCC(C)C)O4)nn2)C(=O)NCC(N)=O)CSCC(=O)N[C@@H](Cc2ccc(O)cc2)C(=O)N(C)[C@@H](C)C(=O)N[C@@H](CC(=O)O)C(=O)N2CCC[C@H]2C(=O)N[C@@H](Cc2c[nH]cn2)C(=O)N[C@@H](CCCCN)C(=O)N2C[C@H](O)C[C@H]2C(=O)N[C@@H](Cc2c[nH]c3ccccc23)C(=O)N[C@@H](CCCCN)C(=O)N[C@@H](Cc2c[nH]c3ccccc23)C(=O)N1C [Example 14052],10 to 99

# Same assay, conditions: inhibition of PD-1-Ig binding to PD-L1-TVMV-His; value given as range class; read-out: HTRF IC50
row,Structure (SMILES),IC50 [nM]
1,CCCCCCCCCCCCCCCCNC(=O)CCCCCCCCCCNC(=O)CNC(=O)[C@@H]1CSCC(=O)N[C@@H](Cc2ccc(O)cc2)C(=O)N(C)[C@@H](C)C(=O)N[C@@H](CC(N)=O)C(=O)N2CCC[C@H]2C(=O)N[C@@H](Cc2cnc[nH]2)C(=O)N[C@@H](CC(C)C)C(=O)N2C[C@H](O)C[C@H]2C(=O)N[C@@H](Cc2c[nH]c3ccccc23)C(=O)N[C@@H](CO)C(=O)N[C@@H](Cc2c[nH]c3ccccc23)C(=O)N(C)[C@@H](CCCC)C(=O)N(C)[C@@H](CCCC)C(=O)N[C@@H](CCCNC(=N)N)C(=O)N1 [Example 11112] ({CH2CO}-Y[NMeA]NPHL[Hyp]WSW[NMeNle][NMeNle]RCG[Aun]-NHhexadecyl; thioether N-14),100 to 1600
2,CCCC[C@H]1C(=O)N(C)[C@@H](CCCC)C(=O)N[C@@H](CC(C)C)C(=O)N[C@H](C(=O)NCC(=O)N[C@@H](CCC(=O)NCCCOCCOCCOCCCNC(=O)CC[C@H](NC(=O)CCCCCCCCCCCCCCC(=O)O)C(=O)O)C(=O)O)CSCC(=O)N[C@@H](Cc2ccc(O)cc2)C(=O)N(C)[C@@H](C)C(=O)N[C@@H](CC(N)=O)C(=O)N2CCC[C@H]2C(=O)N[C@@H](CN)C(=O)N[C@@H](CC(C)C)C(=O)N2C[C@H](O)C[C@@H]2C(=O)N[C@@H](Cc2c[nH]c3ccccc23)C(=O)N[C@@H](CCN)C(=O)N[C@@H](Cc2cn(CC(=O)O)c3ccccc23)C(=O)N1C [Example 11159] ({CH2CO}-Y[NMeA]NP[Dap]L[d(cisHyp)]W[Dab][Trp(1-CH2COOH)][NMeNle][NMeNle]LCGE(X13)-OH; thioether N-14),10 to 99
3,CCCC[C@H]1C(=O)N(C)[C@@H](CCCC)C(=O)N[C@@H](CC(C)C)C(=O)N[C@H](C(=O)NCC(=O)NCCCOCCOCCOCCCNC(=O)CCC(=O)N[C@@H](CC(=O)O)C(N)=O)CSCC(=O)N[C@@H](Cc2ccc(O)cc2)C(=O)N(C)[C@@H](C)C(=O)N[C@@H](CC(N)=O)C(=O)N2CCC[C@H]2C(=O)N[C@@H](Cc2cnc[nH]2)C(=O)N[C@@H](CCC(=O)O)C(=O)N2C[C@H](O)C[C@H]2C(=O)N[C@@H](Cc2c[nH]c3ccccc23)C(=O)N[C@@H](CCN)C(=O)N[C@@H](Cc2c[nH]c3ccccc23)C(=O)N1C [Example 11065] ({CH2CO}-Y[NMeA]NPHE[Hyp]W[Dab]W[NMeNle][NMeNle]LCG-X3; thioether N-14),10 to 99

# Now from value to compound:
row,IC50 [nM],Structure (SMILES)
1,0.3 to 9.9,CCCC[C@H]1C(=O)N(C)[C@@H](CCCC)C(=O)N[C@@H](CC(C)C)C(=O)N[C@H](C(=O)NCC(=O)NCC(=O)NCC(=O)NCCCCCCCCCCC(=O)O)CSCC(=O)N[C@@H](Cc2ccc(O)cc2)C(=O)N(C)[C@@H](C)C(=O)N[C@@H](CC(N)=O)C(=O)N2CCC[C@H]2C(=O)N[C@@H](CN)C(=O)N[C@@H](CC(C)C)C(=O)N2C[C@H](O)C[C@H]2C(=O)N[C@@H](Cc2c[nH]c3ccccc23)C(=O)N[C@@H](CCN)C(=O)N[C@@H](Cc2cn(CC(=O)O)c3ccccc23)C(=O)N1C [Example 11091] ({CH2CO}-Y[NMeA]NP[Dap]L[Hyp]W[Dab][Trp(1-CH2COOH)][NMeNle][NMeNle]LCGGG[Aun]-OH; thioether N-14)
2,10 to 99,CCCC[C@H]1C(=O)N(C)[C@@H](CCCC)C(=O)N[C@@H](CC(C)C)C(=O)N[C@H](C(=O)NCCCCCCCCCCC(=O)N[C@@H](CCC(=O)O)C(=O)O)CSCC(=O)N[C@@H](Cc2ccc(O)cc2)C(=O)N(C)[C@@H](C)C(=O)N[C@@H](CC(N)=O)C(=O)N2CCC[C@H]2C(=O)N[C@@H](CN)C(=O)N[C@@H](CCC(N)=O)C(=O)N2C[C@H](O)C[C@H]2C(=O)N[C@@H](Cc2c[nH]c3ccccc23)C(=O)N[C@@H](CO)C(=O)N[C@@H](Cc2cn(CC(=O)O)c3ccccc23)C(=O)N1C [Example 11132] ({CH2CO}-Y[NMeA]NP[Dap]Q[Hyp]WS[Trp(1-CH2COOH)][NMeNle][NMeNle]LC[Aun]E-OH; thioether N-14)
3,10 to 99,CCCC[C@H]1C(=O)N(C)[C@@H](CCCC)C(=O)N[C@@H](CC(C)C)C(=O)N[C@H](C(=O)N[C@@H](CC(=O)O)C(=O)N[C@@H](CC(=O)NCCCOCCOCCOCCCNC(=O)CC[C@H](NC(=O)CCCCCCCCCCCCCCCCCCC(=O)O)C(=O)O)C(=O)O)CSCC(=O)N[C@@H](Cc2ccc(O)cc2)C(=O)N(C)[C@@H](C)C(=O)N[C@@H](CC(N)=O)C(=O)N2CCC[C@H]2C(=O)N[C@@H](CN)C(=O)N[C@@H](CC(C)C)C(=O)N2C[C@H](O)C[C@H]2C(=O)N[C@@H](Cc2c[nH]c3ccccc23)C(=O)N[C@@H](CCN)C(=O)N[C@@H](Cc2cn(CC(=O)O)c3ccccc23)C(=O)N1C [Example 11252] ({CH2CO}-Y[NMeA]NP[Dap]L[Hyp]W[Dab][Trp(1-CH2COOH)][NMeNle][NMeNle]LCDD(X12)-OH; thioether N-14)
4,0.3 to 9.9,CCCC[C@H]1C(=O)N(C)[C@@H](CCCC)C(=O)N[C@@H](CC(C)C)C(=O)N[C@H](C(=O)NCC(=O)N[C@@H](CC(=O)NCCOCCOCCOCCOCCOCCOCCC(=O)NC[C@H](NC(=O)CCCCCCCCCCCCCCC(=O)O)C(=O)O)C(=O)O)CSCC(=O)N[C@@H](Cc2ccc(O)cc2)C(=O)N(C)[C@@H](C)C(=O)N[C@@H](CC(N)=O)C(=O)N2CCC[C@H]2C(=O)N[C@@H](CN)C(=O)N[C@@H](CC(C)C)C(=O)N2C[C@H](O)C[C@@H]2C(=O)N[C@@H](Cc2c[nH]c3ccccc23)C(=O)N[C@@H](CCN)C(=O)N[C@@H](Cc2cn(CC(=O)O)c3ccccc23)C(=O)N1C [Example 11164] ({CH2CO}-Y[NMeA]NP[Dap]L[d(cisHyp)]W[Dab][Trp(1-CH2COOH)][NMeNle][NMeNle]LCG[βAsp][PEG6]-X10; thioether N-14)
5,0.3 to 9.9,CCCC[C@H]1C(=O)N(C)[C@@H](CCCC)C(=O)N[C@@H](CC(C)C)C(=O)N[C@H](C(=O)NCC(=O)N[C@@H](CNC(=O)CC[C@H](NC(=O)CCCCCCCCCCCCCCCCC(=O)O)C(=O)O)C(=O)O)CSCC(=O)N[C@@H](Cc2ccc(OC)cc2)C(=O)N2CCCC[C@H]2C(=O)N[C@@H](CC(N)=O)C(=O)N2CCC[C@H]2C(=O)N[C@@H](Cc2c[nH]cn2)C(=O)N[C@@H](CCC(N)=O)C(=O)N2C[C@H](O)C[C@H]2C(=O)N[C@@H](Cc2c[nH]c3ccccc23)C(=O)N[C@@H](CCN)C(=O)N[C@@H](Cc2cn(CC(=O)O)c3ccccc23)C(=O)N1C [Example 13154] ({CH2CO}-Y(Me)[Pip]NPHQ[Hyp]W[Dab][Trp(1-CH2COOH)][NMeNle][NMeNle]LCG[Dap]([γGlu-C18 diacid])-OH; thioether N-14)
